“Also recorded” adds a separate entry of the source.

The nature of data set [1]: pKa and enolate ionization of enol compounds. In kind it is physicochemical.
Data set [2] is described as follows: Kinetic assay of acrolein-induced N-acetyl cysteine (NAC) sulfhydryl loss (DTNB method). The following applies: for rate of sulfhydryl loss (mean rate±SE): NAC + acrolein 150 μM + test compound 50 μM co-incubated, Krebs buffer pH 7.4, 30° C.; for sulfhydryl (NAC) protection, pre-incubation: acrolein pre-incubated with test compound, NAC added one hour later. An excerpt:
As an index of cytoprotection, these studies focused on the abilities of 1,3-dicarbonyl compounds to prevent electrophile-induced loss of protein and non-protein sulfhydryl groups. This experimental focus is based on substantial evidence that soft electrophiles, like acrolein, produce toxicity by forming Michael-type adducts with soft nucleophilic thiolate (anionic sulfhydryl) groups on functionally critical proteins^9, 17, 22, 56, 57 (reviewed in^28, 58, 62, 77, 94). […] To test this hypothesis, a determination was made of the ability of AcAc and other structurally related enol analogs to prevent sulfhydryl (nucleophile) adduction by acrolein (electrophile)^56. […] Free sulfhydryl concentrations were determined over time (up to 15 mins) by the DTNB method of LoPachin et al.^52.
Therefore, as a kinetic index of competitive thiol protection by enolate sequestration, the relative in vitro abilities of 1,3-dicarbonyl compounds and phloretin to slow the rate of acrolein-induced sulfhydryl loss were measured.

The test system of data set [3] is acrolein-exposed striatal synaptosomes. Kind of data set: Protection against acrolein-induced inhibition of 3H-dopamine transport in striatal synaptosomes. To be noted: test compound 500 μM, Krebs buffer pH 7.4, 30° C., 15 mins (FIG. 5A). Type of data set: cell-based, rat.
For data set [4], the system named is MN9D cells. Kind of data set: Cell viability (trypan blue) in acrolein-exposed MN9D cultures. The following applies: for protection against acrolein-induced cell death (words): pre-incubation 60 minutes, 750 μM each (phloretin 100 μM). How it is done:
(§1) As a more complex biological model, a determination was made of the relative abilities of the 1,3-dicarbonyls to protect MN9D cells, a dopaminergic cell line, from acrolein- (FIG. 6) or hydrogen peroxide (H2O2)-induced cell death (FIG. 7). Briefly, two days after plating, cells were incubated with AcAc (750 μM) for one hr followed by exposure to graded concentrations of either acrolein (0.50-150 μM×24 hrs) or H2O2 (50-750 μM×24 hrs). Cell viability was determined by trypan blue (0.1%) exclusion. Living cells were counted in a hemocytometer and total cells per dish were calculated.

In data set [5] the test system is MN9D cells. Nature of the data set: Cell viability (trypan blue) in H2O2-exposed MN9D cultures. The following applies: for protection against H2O2-induced cell death: test compound 750 μM (phloretin 100 μM). How it is done:
as §1
(§2) This system represents a more complete model of oxidative stress since the hydroxyl radical formed from intracellular H2O2 during the Fenton reaction, subsequently mediates the generation of toxic aldehyde by-products such as acrolein and 4-hydroxy-2-nonenal (HNE).

A short description of data set [6]: Ferrous ion chelation (method of Dairam et al.).
The test system of data set [7] is whole animal. To be noted: cited from earlier work.
Data set [8] can be described thus: Cell viability (trypan blue) in H2O2-exposed MN9D cultures. To be noted: mouse, MN9D cells. How it is done: as §1, §2
Data set [9] is described as follows: Free radical scavenging (DPPH absorbance method of Ak and Gulcin). How it is done:
The relative abilities of selected 1,3-dicarbonyl compounds to scavenge free radicals were determined using the spectrophotometric method of Ak and Gulcin (2008)^4 that measures changes in the absorbance of the 2,2-diphenyl-1-picrylhydrazyl radical.
For orientation: DPPH is a stable violet radical that fades when it is reduced.

Data set [10] is described as follows: Cytotoxicity of test compound alone in MN9D cultures. The following applies: mouse, MN9D cells.
For data set [11], the system named is MN9D cells. Described as above. To be noted: 100 μM.
The test system of data set [12] is control striatal synaptosomes. Kind of data set: In vitro toxicity: radiolabeled dopamine (DA) membrane transport in control striatal synaptosomes. The following applies: FIG. 4.

For `CC(=O)CC(C)=O` [AcAc, acetylacetone], in data set [1], the pKa (as a rule, the pH at which an ionisable group is half protonated) came to 8.9. Also, the “increase in enolate concentration” value in data set [1] (pH 9.0 relative to pH 7.4) is recorded as about 100 fold. In data set [2], the “rate of sulfhydryl loss (mean rate±SE)” value was −24.9±5 nmol SH sec^−1 and the “sulfhydryl (NAC) protection, pre-incubation” value was “modestly effective”. The “rate of acrolein-induced sulfhydryl (NAC) loss (mean rate±95% confidence interval)” value in data set [2] (pH 7.4) is -24.9 ± 3.6 nmol/s. In data set [2] (pH 9.0), the “rate of acrolein-induced sulfhydryl (NAC) loss” value is -2.43 ± 2.2 nmol/s and the “thiol protection against acrolein at elevated pH” value is reported as “substantially elevated; also recorded: completely protective”. Also, the “change in acrolein IC50 for inhibition of DA transport” value in [3] was “largest increases in the acrolein IC50”. Also, the “concentration dependence of protection against acrolein” value in data set [4] (graded concentrations: 2-ACP 100-750 μM, AcAc 250-1000 μM (range-finding 50-1000 μM)) was “concentration-dependent protection; also recorded: significant increases in the LC50”. Moreover, the “protection against acrolein-induced cell death (words)” value in data set [4] is “significantly increased the acrolein LC50”. Moreover, in data set [4] (test compound 750 μM pre-incubation), the “increase in acrolein LC50” value is on record as about 7 fold. Besides, the “protection against H2O2-induced cytotoxicity” value in [5] (FIG. 7) stood at 3 fold. Further, the “concentration dependence of protection against H2O2” value in [5] (graded concentrations: 2-ACP 250-750 μM, AcAc 500-1500 μM (range-finding 50-1000 μM)) is reported as “concentration-dependent protection; also recorded: significant increases in the LC50 of H2O2”. Moreover, in data set [5], the “protection against H2O2-induced cell death” value is on record as “modestly effective”. Besides, the EC50 in data set [6] (read-out: concentration at which 50% Fe^2+ chelation occurs) was 909 µM. Also, in [7], the LD50 (usually the dose expected to kill half of the subjects tested) is 175 mg/kg.

With `OO` [H2O2, hydrogen peroxide], the CC50 (commonly the concentration at which the toxic effect on the cells reaches its halfway point) at 24 h in data set [8] stood at 254 µM.

Molecule `O=C(CCc1ccc(O)cc1)c1c(O)cc(O)cc1O` [phloretin, reference compound] returned a pKa in data set [1] of 7.3. Besides, the “rate of sulfhydryl loss (mean rate±SE)” value in [2] is on record as −1.9±0.7 nmol SH sec^−1. Further, the “sulfhydryl (NAC) protection, pre-incubation” value in [2] is listed as “significant thiol protection”. Besides, in data set [2] (all chemicals added simultaneously), the “sulfhydryl (NAC) protection, co-incubation” value was “only marginally protective”. Also, the “protection against acrolein-induced cell death (words)” value in data set [4] is “did not protect”; in [4] (listed as Phloretin) it was “did not provide cytoprotection”. The “protection against H2O2-induced cell death” value in data set [5] was “potentiated H2O2 toxicity”. Moreover, the “DPPH radical scavenging” value in [9] is “relatively weak DPPH. scavengers”. Moreover, the “Fe^2+ chelating activity” value in [6] is on record as “little, if any, Fe^2+ chelating activity”. In data set [10], the CC50 was 362 µM. Moreover, the “MN9D cell death / cell loss by compound alone” value is reported as about 50% in data set [11] and 42% in [11] (listed as Phloretin). Also, in [12], the “synaptosomal toxicity of compound alone, DA transport (words, IC50 magnitude)” value was “relatively significant in vitro toxicity; also recorded: significant synaptosomal toxicity”.

The values are drawn from patent publication US8835510B2, “Methods and compositions for treating conditions mediated by oxidative stress or electrophilic environmental toxins” (priority 2010, dated 2014).
